Test results from patent US6147097A, “Imidazole derivatives as anti-HIV agents” (Shionogi & Co., Ltd., priority 1994, dated 2000).
≈ marks a conversion by molar mass, not a printed value. Like-named read-outs stand apart in the source and are kept apart here.

Columns and labels:
MT-4 cells = assay: cytotoxicity in MT-4 cells (MTT, culture medium in place of HIV); format: cell-based; conditions: human, mt-4 cells, 120 h
In short: (§1)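 MT-4 cells (3.5×10^4 per well) exposed to diluted compound with culture medium added instead of HIV, 5 days at 37° C in CO2. MTT added for 1 h, formazan dissolved in Triton X-100/acidified isopropanol. OD read at 560 nm (690 nm reference) and compared with control.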

HIV (HTLV-IIIB strain) = assay: microbe, parasite or virus in culture; format: cell-based; conditions: Human immunodeficiency virus 1, IIIB, MT4, 120 h
In short: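 MT-4 cells (3.5×10^4 per well) were infected with HIV at 60 pfu per well in the presence of diluted compound and incubated for 5 days at 37° C. Surviving cells were then measured by MTT reduction, with the formazan dissolved in acidified isopropanol containing Triton X-100.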

[1] = cytotoxicity in MT-4 cells (MTT, culture medium in place of HIV); format: cell-based; conditions: human
In short: as §1

[2] = molecular target: T1, purified recombinant HIV-1 reverse transcriptase (Human immunodeficiency virus type 1 group M subtype B, UniProt P04585); assay: reverse transcriptase inhibition, poly(rA)/(dT) template primer, [3H]dTTP uptake; format: biochemical
T1 construct: purified recombinant HIV-1 reverse transcriptase; made in house; host or cells: Escherichia coli
In short: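 Inhibition reported as percent reduction of [3H]dTTP incorporation relative to solvent control, after 1 h at 37 °C at pH 8.3. Recombinant RT from E. coli, poly(rA) template with oligo(dT) primer, 4 μM unlabeled dTTP as substrate; product collected on DEAE filter mats.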

[3] = MT-4 cells, 60 pfu HIV per well, 37° C., 5 days, MTT, Tables 1 and 2, read-out: EC50
[4] = MT-4 cells, no virus, 37° C., 5 days, MTT, Table 3, read-out: CC50

Row | Structure (SMILES) | EC50 (head of Table 4; CC50 per Test Example 2) (MT-4 cells) [µg/mL] | EC50 (HIV (HTLV-IIIB strain); [3]) [µg/mL] | CC50 at 120 h ([1]; mt-4 cells) [µg/mL] | IC50 ([2]; read-out: RT IC50, pH 8.3, 37° C., 1 hour, Tables 5 and 6) [µM] | EC50 (HIV (HTLV-IIIB strain)) [µg/mL] | IC50 [2] [µM] | CC50 at 120 h [1, 4] [µg/mL]
1 | CC(O)Cn1c(CO)nc(C(C)C)c1Sc1cc(Cl)cc(Cl)c1 (stereo not shown) [Compound 141a, 5-(3,5-dichlorophenylthio)-2-hydroxymethyl-1-(2-hydroxypropyl)-4-isopropyl-1H-imidazole] | 12.5 to 25 | – | – | – | – | – | –
2 | CC(C)c1nc(CCOCc2ccccc2)n(C)c1Sc1cc(Cl)cc(Cl)c1 [Compound I-136, 2-(2-benzyloxyethyl)-5-(3,5-dichlorophenylthio)-4-isopropyl-1-methyl-1H-imidazole] | – | 0.008 to 0.016 (≈ 0.0184 to 0.0367 µM) | 12.5 (≈ 28.7 µM) | 4.59 | – | – | –
3 | CCn1c(CCOC(N)=O)nc(C(C)C)c1Sc1cc(Cl)cc(Cl)c1 [Compound I-137, 2-(2-carbamoyloxyethyl)-5-(3,5-dichlorophenylthio)-1-ethyl-4-isopropyl-1H-imidazole] | – | – | 50 (≈ 124 µM) | – | 0.004 to 0.008 (≈ 0.00994 to 0.0199 µM) | 8.2 | –
4 | CC(C)c1nc(CCOC(N)=O)n(Cc2ccncc2)c1Sc1cc(Cl)cc(Cl)c1 [Compound I-138, 2-(2-carbamoyloxyethyl)-5-(3,5-dichlorophenylthio)-4-isopropyl-1-(pyridin-4-yl)methyl-1H-imidazole] | – | 0.008 (≈ 0.0172 µM) | 12.5 (≈ 26.9 µM) | – | – | 3.22 | –
5 | CC(C)c1nc(CCO)n(Cc2ccc(N)cc2)c1Sc1cc(Cl)cc(Cl)c1 [Compound I-139, 1-(p-aminobenzyl)-5-(3,5-dichlorophenylthio)-2-hydroxyethyl-4-isopropyl-1H-imidazole] | – | < 0.008 | 6.3 (≈ 14.4 µM) | – | – | 3.67 | –
6 | CC(C)c1nc(CCOC(N)=O)n(Cc2ccc(N)cc2)c1Sc1cc(Cl)cc(Cl)c1 [Compound I-140, 1-(p-aminobenzyl)-2-(2-carbamoyloxyethyl)-5-(3,5-dichlorophenylthio)-4-isopropyl-1H-imidazole] | – | 0.03 to 0.06 (≈ 0.0626 to 0.125 µM) | 6.3 to 12.5 (≈ 13.1 to 26.1 µM) | – | – | 29.8 | –
7 | CC(C)c1nc(CCO)n(Cc2cccc(N)c2)c1Sc1cc(Cl)cc(Cl)c1 [Compound I-141, I-(m-aminobenzyl)-5-(3,5-dichlorophenylthio)-2-hydroxyethyl-4-isopropyl-1H-imidazole] | – | < 0.008 | 25 to 50 (≈ 57.3 to 115 µM) | – | – | 4.12 | –
8 | CC(C)c1nc(CCOC(N)=O)n(Cc2cccc(N)c2)c1Sc1cc(Cl)cc(Cl)c1 [Compound I-142, 1-(m-aminobenzyl)-2-(2-carbamoyloxyethyl)-5-(3,5-dichlorophenylthio)-4-isopropyl-1H-imidazole] | – | 0.016 to 0.03 (≈ 0.0334 to 0.0626 µM) | 6.3 to 12.5 (≈ 13.1 to 26.1 µM) | – | – | 25 | –
9 | CC(C)c1nc(CCO)n(Cc2ccccc2N)c1Sc1cc(Cl)cc(Cl)c1 [Compound I-143] | – | 0.008 (≈ 0.0183 µM) | 12.5 (≈ 28.6 µM) | – | – | 77 | –
10 | CC(C)c1nc(CCOC(N)=O)n(CCOC(N)=O)c1Sc1cc(Cl)cc(Cl)c1 [Compound I-147, 1,2-di-(2-carbamoyloxyethyl)-5-(3,5-dichlorophenylthio)-4-isopropyl-1H-imidazole] | – | 0.005 (≈ 0.0108 µM) | 50 to 100 (≈ 108 to 217 µM) | – | – | 4.33 | –
11 | CC(C)c1nc(CCCOC(N)=O)n(C)c1Sc1cc(Cl)cc(Cl)c1 [Compound I-148, 2-(3-carbamoyloxypropyl)-5-(3,5-dichlorophenylthio)-4-isopropyl-1-methyl-1H-imidazole] | – | 0.005 to 0.01 (≈ 0.0124 to 0.0249 µM) | 6.3 to 12.5 (≈ 15.7 to 31.1 µM) | – | – | 0.895 | –
12 | CCn1c(CCCOC(N)=O)nc(C(C)C)c1Sc1cc(Cl)cc(Cl)c1 [Compound I-149, 2-(3-carbamoyloxypropyl)-5-(3,5-dichlorophenylthio)-1-ethyl-4-isopropyl-1H-imidazole] | – | 0.01 (≈ 0.024 µM) | 6.3 (≈ 15.1 µM) | – | – | 0.769 | –
13 | CC(C)c1nc(CCCOC(N)=O)n(Cc2ccncc2)c1Sc1cc(Cl)cc(Cl)c1 [Compound I-150, 2-(3-carbamoyloxypropyl)-5-(3,5-dichlorophenylthio)-4-isopropyl-1-(pyridin-4-yl)methyl-1H-imidazole] | – | 0.008 (≈ 0.0167 µM) | 6.3 to 12.5 (≈ 13.1 to 26.1 µM) | – | – | 1.88 | –
14 | CC(C)c1nc(CCCOC(N)=O)n(CCOC(N)=O)c1Sc1cc(Cl)cc(Cl)c1 [Compound I-151, 1-(2-carbamoyloxyethyl)-2-(3-carbamoyloxypropyl)-5-(3,5-dichlorophenylthio)-4-isopropyl-1H-imidazole] | – | 0.0006 (≈ 0.00126 µM) | 50 to 100 (≈ 105 to 210 µM) | – | – | 6.1 | –
15 | CC(Cn1c(COC(N)=O)nc(C(C)C)c1Sc1cc(Cl)cc(Cl)c1)OC(N)=O (stereo not shown) [Compound I-152, 2-carbamoyloxymethyl-1-(2-carbamoyloxypropyl)-5-(3,5-dichlorophenylthio)-4-isopropyl-1H-imidazole] | – | < 0.008 | 12.5 to 25 (≈ 27.1 to 54.2 µM) | – | – | 3.25 | –
16 | CC(C)c1nc(CO)n(CC(C)(C)O)c1Sc1cc(Cl)cc(Cl)c1 [Compound I-153, 5-(3,5-dichlorophenylthio)-2-hydroxymethyl-1-(2-hydroxy-2-methylpropyl)-4-isopropyl-1H-imidazole] | – | 0.016 (≈ 0.0411 µM) | 12.5 (≈ 32.1 µM) | – | – | 25.7 | –
17 | CC(O)Cn1c(CO)nc(C(C)C)c1Sc1cc(Cl)cc(Cl)c1 (stereo not shown) [I-32', [1-(2-hydroxypropyl)-5-(3,5-dichlorophenylthio)-4-isopropyl-1H-imidazol-2-yl]methanol] | – | 0.002 to 0.004 (≈ 0.00533 to 0.0107 µM) | – | – | – | 1.52 | 12.5 to 25 (≈ 33.3 to 66.6 µM)
18 | CC(C)c1nc(CN)n(Cc2ccncc2)c1Sc1cc(Cl)cc(Cl)c1 [I-95', 2-aminomethyl-5-(3,5-dichlorophenylthio)-4-isopropyl-1-(pyridin-4-yl)methyl-1H-imidazole] | – | 0.005 (≈ 0.0123 µM) | – | – | – | 1.18 | 6.3 to 12.5 (≈ 15.5 to 30.7 µM)
